Test results taken from patent US11529340B2 (priority 2016, dated 2022).
Entries after “also recorded” stand apart in the source; their conditions may differ. Read-outs that look alike come from different tables or passages of the source.

Legend:
[1] = system: thermal nociceptive responses in mice; assay: Hot water tail flick test, intrathecal injection, naive mice; type: in vivo
Experimental: Subjects were given an intrathecal injection of loperamide, OMI, or combination, and post-drug response were analyzed as a % of maximum possible effect, which was used to generate dose-response curves.
Thermal nociception was measured either using a warm water tail flick test or using the Hargreaves hindpaw method as described previously (Hargreaves, K. et al., Pain 32: 77-88, 1988). Briefly, animals were placed on a heated glass floor (30° C.) and a small plastic box restricted their movement. After allowing the animals to acclimate to the testing environment for a minimum of 15 minutes, a radiant heat lamp was shone on the left hindpaw until the animal withdrew the paw. Paw withdrawal latencies (PWLs) were measured by an IITC plantar stimulator analgesia meter, and a cutoff time of 20 seconds was used to prevent tissue damage. An average of 3-5 PWLs were taken, with a minimum of 30 seconds between tests.
Data Analysis: The ED50, in nanomoles with 95% confidence limits, of all agonists and combinations were calculated using the graded dose-response curve method of Tallarida and Murray (Tallarida, R. J. and Murray, R. B., Manual of pharmacological calculations with computer programs, pp. 26-31, Springer-Verlag, NY, 1987). […] Isobolographic analyses were performed using the numerical method (Tallarida, Pain 49: 93-97, 1992; Ossipov et al., Anesthesiology 86:1-9 1997). […]

[2] = system: light-driven mEPSC frequency in spinal cord slices from Nav1.8-ChR2 mice; assay: Spinal cord slice electrophysiology: inhibition of 470 nm light-evoked mEPSCs; type: cell-based; conditions: increasing concentrations superfused on slice
[3] = system: thermal nociceptive responses in naive mice; assay: Hargreaves assay, naive mice; type: in vivo
[4] = system: CFA-induced hyperalgesia in mice; assay: Hargreaves assay, CFA-induced inflammatory hyperalgesia; type: in vivo; conditions: for ED50: Mus musculus
[5] = system: SNI-induced allodynia in mice; assay: Spared nerve injury (SNI)-induced mechanical allodynia, electronic von Frey; conditions: subcutaneous
mice [6] = assay: Oral gavage antinociception (% MPE) in mice; type: in vivo; conditions: for time of peak antinociceptive effect: oral gavage; for % MPE: oral, 5 mg/kg
Experimental: Animals are restrained by the scruff and held upright (vertically) to maintain a straight line from the mouth to the esophagus. Prior to dosing, the distance from the oral cavity to the caudal point of the sternum is gauged with the gavage needle. Using a bulb-tipped gastric gavage needle attached to a 1 mL syringe, the needle is passed along the roof of the animal's mouth and into the esophagus, stopping at the pre-measured distance. The drug is slowly injected and the needle removed. Drugs are administered in a volume of 10 mL/kg.

[7] = system: HEK-293 cells transfected with opioid receptors (mu, delta, kappa homomers; mu-delta, mu-kappa, kappa-delta heteromers); assay: Intracellular calcium release assay (FLIPR); type: cell-based; conditions: HEK-293 with chimeric Δ6-Gqi4-myr, opioid receptor homomers and heteromers
Experimental: The target compounds were tested for agonist activity using an intracellular calcium release assay. Briefly, HEK-293 cells were transfected with a chimeric Δ6-Gqi4-myr protein employed to measure intracellular Ca^+2 ion release upon receptor activation. Cells stably expressing the chimeric protein were selected from transiently transfected cells in zeocin-containing medium (DMEM+10% fetal bovine serum+1% penicillin/streptomycin+[…] zeocin). Opioid receptors were transiently transfected using different combinations of DNA for heteromers (mu-delta, mu-kappa, kappa-delta) or for singly expressing homomers (mu, delta, kappa). Intracellular calcium release was measured using a FLIPR calcium kit (Molecular Devices) in a FlexStation3 apparatus. For each compound, concentration-response profiles were established by measuring the fluorescence for 90 seconds after addition of the compound and determining the peak effect (maximum-minimum). A concentration-response curve was plotted for the change in Relative Fluorescence Units (ΔRFU) vs. concentration. The calcium mobilization of the antagonist NTI and partial agonist OMI were studied.

mice [8] = assay: Antinociceptive tolerance, day 1 vs day 2 % MPE; type: in vivo; conditions: i.t.
Experimental: Eighty percent effective doses of OMI (4) or BOMI (6) were administered either i.c.v. or i.t. once on day 1 and again on day 2 and the % MPE determined on both days.

mice [9] = assay: Naloxone withdrawal jumping protocol (dependence); type: in vivo; conditions: for dependence: naloxone-precipitated
Experimental: Morphine, OMI and BOMI were tested for dependence using the naloxone withdrawal jumping protocol (Marshall, I. et al., Br. J. Pharmacol. 1969, 37, 505P-506P; and El-kadi, A. O. et al., General Pharmacology: The Vascular System 1994, 25, 1505-1510). On day one the ED80 dose was injected 3 times per day 4 hours apart using the s.c. route of administration. On day 2 two times ED80 and day 3 and 4 with four times the ED80 were injected at the same times used on day one. On the fifth day each animal received a bolus of the top dose followed three hours later by a single dose of naloxone s.c. (10 or 50 mg/kg) and placed in individual circular Plexiglas observation chambers (6.5″×9″). […] At 10 mg/kg and 50 mg/kg naloxone precipitated withdrawal in the morphine-treated animals with a mean 91.5 jumps and 99.3 jumps, respectively. The average number of jumps for both OMI and BOMI after both doses of naloxone was 1 jump.

mice [10] = assay: In vivo antagonism of OMI and BOMI antinociception by opioid antagonists; conditions: agonist administered intrathecally and intracerebroventricularly
Experimental: FIGS. 1a-1d show antagonism studies of OMI and BOMI (6) in vivo from Example 2.
OMI (Portoghese, P. S., et al., J. Med. Chem. 1990, 33, 1714-20) and BOMI were tested in vivo. […] Oral gavage of OMI and (6) produced the peak antinociceptive effect at 30 minutes; further they were taken in vivo studies in mice and challenged by antagonists such as NTI, norBNI and β-FNA. The results are depicted in FIGS. 1a-1d. […] Therefore, it was concluded that OMI and (6) both are MOR-DOR heteromer-selective agonists.

mice [11] = conditions: intrathecal; cited from earlier work
mice [12] = assay: Antinociceptive potency (% MPE) after i.t. or i.c.v. administration; type: in vivo
Experimental: OMI (4) or BOMI (6) were administered via either i.t. or i.c.v. routes and percent maximum possible antinociception (% MPE) determined at 5 or 10 min post-treatment, respectively.

mice [13] = conditions: cited from earlier work
[14] = system: MORs and DORs in CFA-inflamed mice; assay: Antagonism of Lo-OMI anti-hyperalgesia by opioid antagonists (Hargreaves, CFA); type: in vivo; conditions: intraplantar and subcutaneous; β-FNA 24 hours before, others co-administered
[15] = Mus musculus, sc, 0.75 h, subcutaneous, CFA-naive, tested 45 minutes later, read-out: ED50
[16] = intraplantar, naive, tested 15 minutes later
[17] = sc, subcutaneous (systemic), CFA-inflamed, read-out: ED50 (anti-hyperalgesia)
[18] = systemic, CFA-inflamed, loperamide + BOMI co-administered, read-out: ED50 of the drug with the other drug (loperamide or BOMI) present
[19] = intraplantar, CFA-inflamed, loperamide + BOMI co-administered
[20] = topical solution on inflamed hindpaw, CFA
[21] = naloxone s.c. 10 mg/kg after escalating s.c. dosing
[22] = naloxone s.c. 50 mg/kg after escalating s.c. dosing

## CN(C)C(=O)C(CCN1CCC(O)(c2ccc(Cl)cc2)CC1)(c1ccccc1)c1ccccc1 [loperamide]
[1]
  ED50: 5.44 nmol
[2]
  inhibition of light-driven mEPSC frequency: inhibited mEPSC frequency in a concentration-dependent manner
[3]; [15]
  ED50: 12.4 mg/kg
[3]; [16]
  ED50: 57.2 nmol
[4]; [17]
  ED50: 2.42 mg/kg
[4]; [18]
  ED50: 0.06 mg/kg
[4]; intraplantar, CFA-inflamed
  ED50 (anti-hyperalgesia): 6.37 nmol
[4]; [19]
  ED50 of the drug when the other drug (loperamide or BOMI) is also present: 0.5 nmol
[4]; [20]
  ED50 (anti-hyperalgesia): 227 µM
[5]
  time of peak anti-allodynia post-injection: 1 h

## CN1CC[C@]23c4c5ccc(O)c4O[C@H]2c2[nH]c4ccccc4c2C[C@@]3(O)[C@H]1C5 [OMI (4), oxymorphindole]
Mice [6]
  time of peak antinociceptive effect: 30 min
Mice [6]; 20 min
  % MPE: 38.0 ± 8.4 % MPE
Mice [6]; 30 min
  % MPE: 29.5 ± 4.5 % MPE
Mice [6]; 60 min
  % MPE: 38.5 ± 10.7 % MPE
[7]
  calcium mobilization profile: demonstrated a profile of MOR-DOR heteromer selectivity
[7]; listed as OMI
  calcium mobilization profile: selective mobilization in the MOR-DOR co-expressing cell line
Mice [8]
  antinociceptive tolerance: neither agent injected i.t. produced antinociceptive tolerance
Mice [8]; listed as OMI
  antinociceptive tolerance: did not produce tolerance
Mice [9]; [21]
  number of jumps in 10 minutes (mean): 1 jumps
Mice [9]; [22]
  number of jumps in 10 minutes (mean): 1 jumps
Mice [9]; listed as OMI
  dependence: neither OMI nor (6) produced dependence; also recorded: did not create any dependence
Mice [10]
  antagonism by β-FNA: antagonized by β-FNA
[1]
  ED50: 3.52 nmol
[2]
  inhibition of light-driven mEPSC frequency: inhibited mEPSC frequency in a concentration-dependent manner
[3]; [15]
  ED50: 5.13 mg/kg
[3]; [16]
  ED50: 33.7 nmol
[4]; [17]
  ED50: 1.12 mg/kg
[4]; intraplantar, CFA-inflamed
  ED50 (anti-hyperalgesia): 12.3 nmol
[4]; [20]
  ED50 (anti-hyperalgesia): 166 µM
Mice [11]
  interaction with the MOR agonist morphine: synergized with the MOR agonist morphine
[5]
  time of peak anti-allodynia post-injection: 1 h

## CN1CC[C@]23c4c5ccc(O)c4O[C@H]2c2c(c4ccccc4n2Cc2ccccc2)C[C@@]3(O)C1C5 [BOMI (6), (4bS,8aS,14bR)-14-benzyl-7-methyl-5,6,7,8,8a,9,14,14b-octahydro-4,8-methanobenzofuro[2,3-a]pyrido[4,3-b]carbazole-1,8a-diol]
Mice [6]
  time of peak antinociceptive effect: 30 min
Mice [6]; 20 min
  % MPE: 38.3 ± 10.4 % MPE
Mice [6]; 30 min
  % MPE: 19.6 ± 4.8 % MPE
Mice [6]; 60 min
  % MPE: 42.8 ± 6.2 % MPE
Mice [6]; 120 min
  % MPE: 38.4 ± 8.4 % MPE
[7]; listed as 6
  calcium mobilization profile: predominantly MOR-DOR heteromer-selective
[7]; listed as BOMI
  calcium mobilization profile: mixed, stimulation of MOR most active
Mice [12]; i.c.v., % MPE at 10 min
  potency relative to parent compound OMI (4): three times more potent
Mice [12]; i.t., % MPE at 5 min
  potency relative to parent compound OMI (4): 20 times
Mice [8]
  antinociceptive tolerance: neither agent injected i.t. produced antinociceptive tolerance
Mice [8]; listed as 6
  antinociceptive tolerance: did not produce tolerance
Mice [9]; [21]
  number of jumps in 10 minutes (mean): 1 jumps
Mice [9]; [22]
  number of jumps in 10 minutes (mean): 1 jumps
Mice [9]; listed as 6
  dependence: neither OMI nor (6) produced dependence
Mice [9]; listed as BOMI
  dependence: did not create any dependence
Mice [10]
  antagonism by β-FNA: antagonized by β-FNA; also recorded: antagonism of (6) by β-FNA was more significant
[4]; [17]
  ED50: 0.08 mg/kg
[4]; [18]
  ED50: 0.003 mg/kg
[4]; intraplantar, CFA-inflamed
  ED50 (anti-hyperalgesia): 0.34 nmol
[4]; [19]
  ED50 of the drug when the other drug (loperamide or BOMI) is also present: 0.02 nmol

## C[C@]12N[C@H](Cc3ccccc31)c1ccccc12 [MK801]
Mice [13]; intrathecal
  ED50 for reduction in rotarod performance: 11 nmol
  reduction in rotarod performance: 80%

## Oc1ccc2c3c1O[C@H]1c4[nH]c5ccccc5c4C[C@@]4(O)[C@@H](C2)N(CC2CC2)CC[C@]314 [NTI, naltrindole]
[7]
  calcium mobilization profile: devoid of any calcium mobilization; also recorded: did not show calcium mobilization in any cell line tested
[14]
  reversal of the anti-hyperalgesic effects of Lo-OMI: significantly reversed the anti-hyperalgesic effects of Lo-OMI in a dose-dependent manner

## COC(=O)/C=C/C(=O)N[C@@H]1CC[C@@]2(O)[C@H]3Cc4ccc(O)c5c4[C@@]2(CCN3CC2CC2)[C@H]1O5 [β-FNA, beta-funaltrexamine]
[14]
  reversal of the anti-hyperalgesic effects of Lo-OMI: significantly reversed the anti-hyperalgesic effects of Lo-OMI in a dose-dependent manner

## CN1CC[C@]23c4c5ccc(O)c4O[C@H]2[C@@H](O)C=C[C@H]3[C@H]1C5 [morphine]
Mice [9]; [21]
  number of jumps in 10 minutes (mean): 91.5 jumps
Mice [9]; [22]
  number of jumps in 10 minutes (mean): 99.3 jumps

## Clc1cccc(Cl)c1N=C1NCCN1 [clonidine]
Mice [13]; literature or earlier results, route as stated
  impairment of rotarod performance / motor function: dose-dependently and fully impairs rotarod performance

## C=CC[N+]1(C)CC[C@]23c4c5ccc(O)c4O[C@H]2C(=O)CC[C@@]3(O)[C@H]1C5 (stereo partly drawn) [naloxone methiodide]
[14]
  reversal of the anti-hyperalgesic effects of Lo-OMI: significantly reversed the anti-hyperalgesic effects of Lo-OMI in a dose-dependent manner; also recorded: completely ablated the behavioral anti-hyperalgesia
